Experiments:
[1] = target: T1, DGKα (hDGKalpha(1-735)-N-His) (Homo sapiens, UniProt P23743); assay: In vitro DGK inhibition assay, DGKalpha ADP Glo (in house); type: biochemical; details: 4 nM DGKα, 25 μM ATP, 125 uM DLG in liposomes, 1 hour reaction
T1 construct: hDGKalpha(1-735)-N-His; His (N); made in house; host or cells: Sf21 insect cells (baculovirus)
Method: (§1) DGKα and ζ kinases use ATP to phosphorylate the substrate 1,2-dilauroyl-sn-glycerol (DLG, incorporated in the liposomes). ATP is converted to ADP as a result of this enzymatic reaction. After the kinase reaction, an ATP-depletion reagent is added to terminate the kinase reaction and deplete any remaining ATP, leaving only ADP. Second, a detection reagent is added to simultaneously convert ADP to ATP and allow the newly synthesized ATP to be converted to light using a coupled luciferase/luciferin reaction.
(§2) Full length DGKα and ζ were expressed in Sf21 insect cells by infecting the cells with the baculovirus stock at MOI of 2. Purification of both enzymes was performed as previously described by Takahashi et al., PeerJ, 2018 (Takahashi, D.; Sakane, F. Expression and purification of human diacylglycerol 5 kinase alpha from baculovirus-infected insect cells for structural studies. PeerJ2018, 6, No. e5449).
(§3) A concentrated liposome solution was prepared in assay buffer without DTT and BSA: 2 mM of DLG in 21 mM of total liposome (2 mM DLG/8 mM PS/11 mM PC). The reaction mixtures contain the assay buffer with a final DLG concentration of 125 uM ATP concentrations of 25 μM (for DGKA assay) or 50 μM (for DGKZ assay). The reactions were started by addition of DGK α and ζ kinases at 4 nM and 2 nM final concentrations, respectively. After 1 hour reaction, the amount of ADP formed was detected with the ADP-Glo kinase assay (Promega) according to the manufacturer instructions. Compounds were added in 11-points dose response, starting at […], 1:3 dilutions, with a final DMSO concentration of 2%. The multidrop combi was used as a liquid handler and luminescence was read with 0.5 s by the envision reader (PE).

primary human T-cells = assay: Proliferation assay (5 days, CellTiter-Glo, CD3-stimulated T-cells); type: cell-based; details: for Emax proliferation (% activation): CD3 condition, normalised to DMSO (neutral) and 20 μM reference compound A1 = 100%; for EC50: Homo sapiens, T-cell, 120 h, CD3-stimulated primary human T-cells, 5 days, CellTiter-Glo, fitted sigmoidal curve, read-out: Tcell Proliferation CD3 EC50
Method: As readouts for T-cell activation, 1L2 secretion after 24 hours and proliferation after 5 days was measured. Increases in IL2 secretion and proliferation upon compound treatment were assessed as the % of the maximum of reference compound A1. WO 2016/139181 discloses reference compound A1 as example 70. As a counter screen and to make sure that no unwanted TCR-independent activation was triggered, PBS conditions were run for all compounds.
Expanded primary human T-cells are thawed and cultured in RPMI 1640 (Gibco, #61870-010)+5% human serum (HS, Sigma, #H3667)+1 mM Sodium Pyruvate (Gibco, #11360-039)+50 μM 2-mercaptoethanol (Gibco, #31350-010) and 1× Pen-Strep (Life Technologies, #15140122) medium at density of 2 Mio/ml for 3 hours in 5% CO2, 37° C. and 95% humidity. For coating of plates, PBS++ only or PBS++ with CD3 antibody (concentration depending on donor and determined by CD3 titrations) is added 100 μl/well to Poly-D Lysine coated 96-well plates. Plates are sealed and incubated at room temperature for 3 hours on a table-top rocking platform. After incubation, plates are washed once with PBS−− and filled with 40 μl/well culture medium only. Compounds are then added (see next section) to medium only plates. After 3 hours of culturing the T-cells, cells are filtered through a cell strainer (Miltenyi Biotech, #130-041-407), counted again and concentration is adjusted to 1.25 Mio/ml.
Cells are then seeded 80 μl/well to the 40 μl/well including dispensed compounds according to plate layout. By adding cells, compounds are further diluted 1:3, and resulting in 100 k cells/120 μl/well. After 48 hours 40 μl of supernatant is collected carefully from the top while not disturbing the cells. Cells are assessed for proliferation 5 days later by measuring […] using CellTiterGlo (Promega).
Compounds were added in a 5 or 6 pt dose response with the Tecan D300e Digital Dispenser, all conditions 3 times more concentrated than the end-concentration, since cells are added afterwards (80 μl cells to 40 μl prepared medium with treatment). The DR was starting at 20 μM or 10 μM final top concentration and a dilution factor of 3.333. The positive control was the reference compound A1 that was added in a dose response as well, additionally to 3 wells of only 20 μM representing the positive stimulator control. All wells were normalized with DMSO to a final concentration of 0.6% (0.2% end-concentration).
After 5 days, for detection of ATP which is directly proportional to the number of cells present per well, the CellTiter-Glo® 2.0 Reagent is used. After visual control for toxicity or precipitations of the tested compounds, the plates are equilibrated to room temperature for 45 minutes. CellTiter-Glo® 2.0 Reagent is equilibrated to room temperature as well. After equilibration, an equal amount of CellTiter-Glo reagent is added to the cells (80 μl/well) with an electronic multichannel pipette. Plates are placed on a rocking platform for 15 minutes at room temperature. After incubation, the bottom of the plates is sealed with backing tape. Luminescence is measured with PHERAstar FSX (interval time 0.5 sec, gain 3000, focal height 15 mm) and exported as CSV file for analysis in Genedata screener.
CD3 and PBS plates were analysed separately in Genedata Screener using Roche Normalization PCT_POS_CTRL with DMSO set as Neutral Control and 20 μM of the reference compound A1 set as Stimulator Control/100%.
For CD3 conditions EC50 and Emax of the fitted sigmoidal curve were reported. If no curve could be fitted, the EC50 was reported as blank field and the Emax was based on individual data points. […] Compounds which activate unstimulated cells (see IL2 measurements) or compounds which negatively affected viability were flagged.

[2] = target: T2, DGKζ (hDGKzeta(1-928)-N-His) (Homo sapiens, UniProt Q13574); assay: In vitro DGK inhibition assay, DGKzeta ADP Glo (in house); type: biochemical; details: 2 nM DGKζ, 50 μM ATP, 125 uM DLG in liposomes, 1 hour reaction
T2 construct: hDGKzeta(1-928)-N-His; His (N); made in house; host or cells: Sf21 insect cells (baculovirus)
Method: as §1, §2, §3

T2 sequence (Q13574 whole entry): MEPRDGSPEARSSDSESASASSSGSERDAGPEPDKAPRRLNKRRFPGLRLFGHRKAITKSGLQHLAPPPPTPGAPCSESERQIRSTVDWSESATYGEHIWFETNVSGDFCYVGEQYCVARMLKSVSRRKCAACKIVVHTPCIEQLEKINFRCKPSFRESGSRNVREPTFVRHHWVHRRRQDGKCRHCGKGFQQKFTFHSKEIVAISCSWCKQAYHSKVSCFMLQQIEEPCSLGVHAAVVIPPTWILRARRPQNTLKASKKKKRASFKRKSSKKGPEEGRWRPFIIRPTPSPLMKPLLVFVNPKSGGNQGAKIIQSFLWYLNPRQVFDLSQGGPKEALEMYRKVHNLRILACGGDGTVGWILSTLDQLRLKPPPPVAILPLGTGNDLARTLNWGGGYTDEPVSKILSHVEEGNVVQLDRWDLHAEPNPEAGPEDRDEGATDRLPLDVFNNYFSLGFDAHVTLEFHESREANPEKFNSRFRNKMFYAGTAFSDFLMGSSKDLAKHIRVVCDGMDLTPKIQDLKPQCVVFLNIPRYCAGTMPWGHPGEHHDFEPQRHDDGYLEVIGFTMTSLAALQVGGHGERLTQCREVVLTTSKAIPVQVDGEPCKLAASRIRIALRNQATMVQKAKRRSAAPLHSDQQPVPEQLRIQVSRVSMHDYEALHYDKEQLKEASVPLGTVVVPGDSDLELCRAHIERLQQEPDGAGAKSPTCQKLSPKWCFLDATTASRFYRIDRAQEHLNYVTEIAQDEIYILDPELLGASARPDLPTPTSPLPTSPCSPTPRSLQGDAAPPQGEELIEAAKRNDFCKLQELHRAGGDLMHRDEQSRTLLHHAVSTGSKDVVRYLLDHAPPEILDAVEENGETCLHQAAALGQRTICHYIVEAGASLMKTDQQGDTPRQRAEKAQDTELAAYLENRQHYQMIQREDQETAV
T1 sequence (P23743 whole entry): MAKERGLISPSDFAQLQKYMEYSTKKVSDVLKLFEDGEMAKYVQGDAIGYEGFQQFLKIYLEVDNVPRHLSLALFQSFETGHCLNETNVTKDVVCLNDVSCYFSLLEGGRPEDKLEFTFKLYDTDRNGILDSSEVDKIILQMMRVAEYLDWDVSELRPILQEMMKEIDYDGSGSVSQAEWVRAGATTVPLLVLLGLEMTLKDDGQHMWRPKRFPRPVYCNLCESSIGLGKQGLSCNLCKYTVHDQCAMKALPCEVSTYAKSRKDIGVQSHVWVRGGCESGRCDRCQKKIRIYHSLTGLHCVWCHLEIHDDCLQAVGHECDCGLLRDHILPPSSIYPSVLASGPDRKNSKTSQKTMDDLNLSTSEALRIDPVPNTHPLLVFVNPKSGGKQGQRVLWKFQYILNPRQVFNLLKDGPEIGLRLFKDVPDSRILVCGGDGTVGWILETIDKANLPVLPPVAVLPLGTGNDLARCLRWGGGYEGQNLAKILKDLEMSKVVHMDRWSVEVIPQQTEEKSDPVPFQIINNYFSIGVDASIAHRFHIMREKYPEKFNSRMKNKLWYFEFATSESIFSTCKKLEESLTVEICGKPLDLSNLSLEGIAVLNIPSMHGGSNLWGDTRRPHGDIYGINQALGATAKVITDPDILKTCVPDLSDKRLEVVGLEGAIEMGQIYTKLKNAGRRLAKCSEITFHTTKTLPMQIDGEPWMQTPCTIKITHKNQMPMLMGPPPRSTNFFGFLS

SMILES	IC50 [1]	Emax proliferation (% activation) (primary human T-cells)	EC50 (primary human T-cells)	IC50 [2]
COC(F)(c1nnc(-c2ccc3c(c2)N(Cc2ccc(-c4ncn(C5CC5)n4)cc2)C(=O)[C@@H](N)CS3(=O)=O)o1)C(F)(F)F (stereo partly drawn) [Example 66, (3R)-3-amino-5-[[4-(1-cyclopropyl-1,2,4-triazol-3-yl)phenyl]methyl]-1,1-dioxo-7-[5-(1,2,2,2-tetrafluoro-1-methoxy-ethyl)-1,3,4-oxadiazol-2-yl]-2,3-dihydro-1λ^6,5-benzothiazepin-4-one]	14900 nM	112 % activation	1290 nM	6610 nM
CC(C)(C#N)c1nnc(-c2ccc3c(c2)N(Cc2ccc(-c4ccc(OCC(F)(F)F)cn4)cc2)C(=O)[C@@H](N)CS3(=O)=O)o1 [Example 135, 2-[5-[(3R)-3-amino-1,1,4-trioxo-5-[[4-[5-(2,2,2-trifluoroethoxy)-2-pyridyl]phenyl]methyl]-2,3-dihydro-1λ^6,5-benzothiazepin-7-yl]-1,3,4-oxadiazol-2-yl]-2-methyl-propanenitrile]	1730 nM	149 % activation	257 nM	786 nM
CC(C)(C#N)c1nnc(-c2ccc3c(c2)N(Cc2ccc(-c4ccc(OC(F)(F)F)nc4)cc2)C(=O)[C@@H](N)CS3(=O)=O)o1 [Example 137, 2-[5-[(3R)-3-amino-1,1,4-trioxo-5-[[4-[6-(trifluoromethoxy)-3-pyridyl]phenyl]methyl]-2,3-dihydro-1λ^6,5-benzothiazepin-7-yl]-1,3,4-oxadiazol-2-yl]-2-methyl-propanenitrile]	11200 nM	124 % activation	406 nM	660 nM
CC(C)(C#N)c1nnc(-c2ccc3c(c2)N(Cc2ccc(-n4cc(OC(F)(F)F)cn4)cc2)C(=O)[C@@H](N)CS3(=O)=O)o1 [Example 138, 2-[5-[(3R)-3-amino-1,1,4-trioxo-5-[[4-[4-(trifluoromethoxy)pyrazol-1-yl]phenyl]methyl]-2,3-dihydro-1λ^6,5-benzothiazepin-7-yl]-1,3,4-oxadiazol-2-yl]-2-methyl-propanenitrile]	657 nM	158 % activation	83.2 nM	465 nM
Cc1cc(-c2ccc(CN3C(=O)[C@@H](N)CS(=O)(=O)c4ccc(-c5nnc(C(C)(C)C#N)o5)cc43)cc2)ncc1OC(F)(F)F [Example 144, 2-[5-[(3R)-3-amino-5-[[4-[4-methyl-5-(trifluoromethoxy)-2-pyridyl]phenyl]methyl]-1,1,4-trioxo-2,3-dihydro-1λ^6,5-benzothiazepin-7-yl]-1,3,4-oxadiazol-2-yl]-2-methyl-propanenitrile]	15500 nM	87 % activation	291 nM	860 nM
CC(C)(C#N)c1nnc(-c2ccc3c(c2)N(Cc2ccc(-n4cc(C(F)(F)F)nn4)cc2)C(=O)[C@@H](N)CS3(=O)=O)o1 [Example 145, 2-[5-[(3R)-3-amino-1,1,4-trioxo-5-[[4-[4-(trifluoromethyl)triazo1-1-yl]phenyl]methyl]-2,3-dihydro-1λ^6,5-benzothiazepin-7-yl]-1,3,4-oxadiazol-2-yl]-2-methyl-propanenitrile]	18000 nM	86 % activation	4260 nM	955 nM
Cn1nc(OC(F)(F)F)cc1-c1ccc(CN2C(=O)[C@@H](N)CS(=O)(=O)c3ccc(-c4nnc(C(C)(C)C#N)o4)cc32)cc1 [Example 148, 2-[5-[(3R)-3-amino-5-[[4-[2-methyl-5-(trifluoromethoxy)pyrazol-3-yl]phenyl]methyl]-1,1,4-trioxo-2,3-dihydro-1λ^6,5-benzothiazepin-7-yl]-1,3,4-oxadiazol-2-yl]-2-methyl-propanenitrile]	737 nM	186 % activation	182 nM	1050 nM
N#CC1(c2nnc(-c3ccc4c(c3)N(Cc3ccc(-c5ccc(OC(F)(F)F)cn5)cc3)C(=O)[C@@H](N)CS4(=O)=O)o2)CCOCC1 [Example 173, 4-[5-[(3R)-3-amino-1,1,4-trioxo-5-[[4-[5-(trifluoromethoxy)-2-pyridyl]phenyl]methyl]-2,3-dihydro-1λ^6,5-benzothiazepin-7-yl]-1,3,4-oxadiazol-2-yl]tetrahydropyran-4-carbonitrile]	2060 nM	101 % activation	235 nM	416 nM
CC(C)(C#N)Cc1nnc(-c2ccc3c(c2)N(Cc2ccc(-c4ccc(OC(F)(F)F)cn4)cc2)C(=O)[C@@H](N)CS3(=O)=O)o1 [Example 174, 3-[5-[(3R)-3-amino-1,1,4-trioxo-5-[[4-[5-(trifluoromethoxy)-2-pyridyl]phenyl]methyl]-2,3-dihydro-1λ^6,5-benzothiazepin-7-yl]-1,3,4-oxadiazol-2-yl]-2,2-dimethyl-propanenitrile]	9300 nM	124 % activation	543 nM	1140 nM
CCC(C#N)(CC)c1nnc(-c2ccc3c(c2)N(Cc2ccc(-c4ccc(OC(F)(F)F)cn4)cc2)C(=O)[C@@H](N)CS3(=O)=O)o1 [Example 176, 2-[5-[(3R)-3-amino-1,1,4-trioxo-5-[[4-[5-(trifluoromethoxy)-2-pyridyl]phenyl]methyl]-2,3-dihydro-1λ^6,5-benzothiazepin-7-yl]-1,3,4-oxadiazol-2-yl]-2-ethyl-butanenitrile]	1530 nM	140 % activation	85.7 nM	1550 nM
N[C@H]1CS(=O)(=O)c2ccc(-c3nnc(C4(N)CCC(F)(F)CC4)o3)cc2N(Cc2ccc(-c3ccc(OC(F)(F)F)cn3)cc2)C1=O [Example 178, (3R)-3-amino-7-[5-(1-amino-4,4-difluoro-cyclohexyl)-1,3,4-oxadiazol-2-yl]-1,1-dioxo-5-[[4-[5-(trifluoromethoxy)-2-pyridyl]phenyl]methyl]-2,3-dihydro-1λ^6,5-benzothiazepin-4-one]	7100 nM	96 % activation	133 nM	1690 nM
